According to US20070276011A1, “Plasminogen Activator Inhibitor-1 Inhibitor” (priority 2003, published 2007):

target: recombinant human PAI-1 (Homo sapiens, UniProt P05121); assay: PAI-1 inhibitory activity, Test Method A (tPA fluorogenic substrate, Tris buffer pH8.0, 37 C); format: biochemical; details: 25 μM test compound; Test Method A
Sequence (P05121 24-402): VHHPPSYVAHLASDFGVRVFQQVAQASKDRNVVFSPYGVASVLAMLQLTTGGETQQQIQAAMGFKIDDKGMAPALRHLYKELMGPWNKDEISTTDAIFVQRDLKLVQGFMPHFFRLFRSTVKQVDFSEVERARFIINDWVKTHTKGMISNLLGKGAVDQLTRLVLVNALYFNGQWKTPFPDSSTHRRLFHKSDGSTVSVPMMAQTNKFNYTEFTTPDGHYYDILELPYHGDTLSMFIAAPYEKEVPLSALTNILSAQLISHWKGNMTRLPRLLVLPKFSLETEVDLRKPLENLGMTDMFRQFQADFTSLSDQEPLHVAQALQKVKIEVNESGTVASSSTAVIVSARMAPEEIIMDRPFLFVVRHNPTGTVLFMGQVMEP

| Structure (SMILES) | Inhibitory Ratio at 25 μM (%) |
| --- | --- |
| O=C1SC(=Cc2cc(O)c3c(c2)OCO3)C(=O)N1Cc1ccc(Cl)c(Cl)c1 [compound 324] | 65% |
| O=C1SC(=Cc2ccc(F)c(O)c2)C(=O)N1Cc1ccc(Cl)c(Cl)c1 [compound 326] | 66% |
| COc1cc(C=C2SC(=O)N(Cc3ccc(Cl)c(Cl)c3)C2=O)ccc1Cl [compound 327, 5-(3-methoxy-4-chlorobenzylidene)-3-(3,4-dichlorobenzyl)-thiazolidine-2,4-dione] | 61% |
| O=C1SC(=Cc2ccc(Cl)c(O)c2)C(=O)N1Cc1ccc(Cl)c(Cl)c1 [compound 328] | 63% |
| COc1c(O)cccc1C=C1SC(=O)N(Cc2ccc(Cl)c(Cl)c2)C1=O [compound 329] | 34% |
| COc1ccc(C=C2SC(=O)N(Cc3ccc(Cl)c(Cl)c3)C2=O)cc1F [compound 331, 5-(3-fluoro-4-methoxybenzylidene)-3-(3,4-dichlorobenzyl)-thiazolidine-2,4-dione] | 35% |
| O=C1SC(=Cc2ccc(O)c(F)c2)C(=O)N1Cc1ccc(Cl)c(Cl)c1 [compound 332] | >99% |
| COc1ccc(C=C2SC(=O)N(Cc3ccc(Cl)c(Cl)c3)C2=O)cc1C(F)(F)F [compound 333] | 73% |
| N=C(N)NCCC[C@H](N)C(=O)O.N=C(N)NCCC[C@H](N)C(=O)O.O=C1SC(=Cc2ccc(O)c(O)c2)C(=O)N1Cc1ccc(Cl)cc1Cl [compound 335, di(L-(+)-arginine) salt of 5-(3,4-dihydroxybenzylidene)-3-(2,4-dichlorobenzyl)thiazolidine-2,4-dione] | >99% |
| O=C1SC(=Cc2ccc3c(c2)OCO3)C(=O)N1Cc1ccc(Cl)cc1Cl [compound 336] | 61% |
| CCOC(=O)Oc1ccc(C=C2SC(=O)N(Cc3ccc(Cl)cc3Cl)C2=O)cc1OC(=O)OCC [compound 337] | 43% |
| O=C1SC(=Cc2cc([O-])c([O-])c(O)c2)C(=O)N1Cc1ccc(Cl)c(Cl)c1.[Na+].[Na+] [compound 338] | 85% |
| O=C1SC(=Cc2ccc([O-])c([O-])c2)C(=O)N1Cc1ccc(Cl)cc1Cl.[Na+].[Na+] [compound 339] | >99% |
| CCOC(=O)Oc1cc(C=C2SC(=O)N(Cc3ccc(Cl)c(Cl)c3)C2=O)cc(OC(=O)OCC)c1OC(=O)OCC [compound 340] | 56% |
| COC(=O)c1cc(C=C2SC(=O)N(Cc3ccc(Cl)cc3Cl)C2=O)cc(O)c1O [compound 341, 5-[3,4-Dihydroxy-5-(methoxycarbonyl)benzylidene]-3-(2,4-dichlorobenzyl)thiazolidine-2,4-dione] | >99% |
| COC(=O)c1c(O)cc(C=C2SC(=O)N(Cc3ccc(Cl)cc3Cl)C2=O)cc1O [compound 342, 5-[3,5-Dihydroxy-4-(methoxycarbonyl)benzylidene]-3-(2,4-dichlorobenzyl)thiazolidine-2,4-dione] | 37% |
| COC(=O)c1cc(C=C2SC(=O)N(Cc3ccc(Cl)c(Cl)c3)C2=O)cc(OC)c1O [compound 343, 5-[3-methoxy-4-hydroxy-5-(methoxycarbonyl)benzylidene]-3-(3,4-dichlorobenzyl)thiazolidine-2,4-dione] | 71% |
| COC(=O)c1cc(C=C2SC(=O)N(Cc3ccc(Cl)c(Cl)c3)C2=O)cc(O)c1O [compound 344] | >99% |
| COc1cc(C=C2SC(=O)N(Cc3ccc(Cl)c(Cl)c3)C2=O)cc(C(=O)O)c1O [compound 345, 5-(3-Methoxy-4-hydroxy-5-carboxybenzlidene)-3-(3,4-dichlorobenzyl)thiazolidine-2,4-dione] | 89% |
| COc1cc(C=C2SC(=O)N(Cc3ccc(Cl)c(Cl)c3)C2=O)cc([N+](=O)[O-])c1O [compound 346, 5-(3-methoxy-4-hydroxy-5-nitrobenzylidene)-3-(3,4-dichlorobenzyl)thiazolidine-2,4-dione] | >99% |
| COc1cc(C=C2SC(=O)N(Cc3ccc(Cl)c(Cl)c3)C2=O)cc(OC)c1OC [compound 348] | 44% |
| COc1ccc(NC(=O)c2cc(C=C3SC(=O)N(Cc4ccc(Cl)c(Cl)c4)C3=O)ccc2O)cc1OC [compound 351, 5-[4-Hydroxy-3-(3,4-dimethoxyphenylcarbamoyl)benzylidene]-3-(3,4-dichlorobenzyl)thiazolidine-2,4-dione] | 54% |

| Structure (SMILES) | Inhibitory Ratio at 25 μM (%) |
| --- | --- |
| COc1ccc(NC(=O)c2cc(C=C3SC(=O)N(Cc4ccc(Cl)c(Cl)c4)C3=O)ccc2O)cc1 [compound 353, 5-[4-hydroxy-3-(4-methoxyphenylcarbamoyl)benzylidene]-3-(3,4-dichlorobenzyl)thiazolidine-2,4-dione] | 66% |
| O=C(Nc1ccc(O)cc1)c1cc(C=C2SC(=O)N(Cc3ccc(Cl)c(Cl)c3)C2=O)ccc1O [compound 354] | 72% |
| COc1cccc(NC(=O)c2cc(C=C3SC(=O)N(Cc4ccc(Cl)c(Cl)c4)C3=O)ccc2O)c1 [compound 355, 5-[4-hydroxy-3-(3-methoxyphenylcarbamoyl)benzylidene]-3-(3,4-dichlorobenzyl)thiazolidine-2,4-dione] | >99% |
| O=C(Nc1cccc(O)c1)c1cc(C=C2SC(=O)N(Cc3ccc(Cl)c(Cl)c3)C2=O)ccc1O [compound 356] | >99% |
| COc1ccc(NC(=O)c2cccc(C=C3SC(=O)N(Cc4ccc(Cl)c(Cl)c4)C3=O)c2)cc1OC [compound 357] | 82% |
| O=C(O)c1cc(C=C2SC(=O)N(Cc3ccc(Cl)c(Cl)c3)C2=O)ccc1O [compound 358, 5-(3-Carboxy-4-hydroxybenzylidene)-3-(3,4-dichlorobenzyl)thiazolidine-2,4-dione] | 95% |
| COc1ccc(C=C2SC(=O)N(Cc3ccc(Cl)c(Cl)c3)C2=O)cc1NC(=O)c1ccc(O)c(O)c1 [compound 359, 5-[4-Methoxy-3-(3,4-dihydroxybenzoylamino)benzylidene]-3-(3,4-dichlorobenzyl)thiazolidine-2,4-dione] | >99% |
| COc1ccc(NC(=O)c2cc(C=C3SC(=O)N(Cc4ccc(Cl)c(Cl)c4)C3=O)cc(OC)c2O)cc1C(F)(F)F [compound 360] | >99% |
| COc1cc(C=C2SC(=O)N(Cc3ccc(Cl)c(Cl)c3)C2=O)cc(C(=O)Nc2ccc(O)c(C)c2)c1O [compound 361] | >99% |
| COc1ccc(COC(=O)c2cc(C=C3SC(=O)N(Cc4ccc(-c5ccccc5)cc4)C3=O)ccc2O)cc1 [compound 362, 5-[3-(4-Methoxybenzyloxycarbonyl)-4-hydroxybenzylidene]-3-(4-phenylbenzyl)thiazolidine-2,4-dione] | >99% |
| O=C(OCc1ccccc1)c1cc(C=C2SC(=O)N(Cc3cc(C(F)(F)F)ccc3C(F)(F)F)C2=O)ccc1O [compound 363, 5-(3-Benzyloxycarbonyl-4-hydroxybenzylidene)-3-[2,5-bis(trifluoromethyl)benzyl]thiazolidine-2,4-dione] | 84% |
| O=C(Nc1cc(C=C2SC(=O)N(Cc3ccc(Cl)c(Cl)c3)C2=O)ccc1O)c1ccc(OC(F)(F)F)cc1 [compound 365] | >99% |
| O=C(Nc1cccc(C=C2SC(=O)N(Cc3ccc(Cl)c(Cl)c3)C2=O)c1)c1ccc(O)c(O)c1 [compound 370] | >99% |
| COc1ccc(NC(=O)c2cc(C=C3SC(=O)N(Cc4ccc(-c5ccccc5)cc4)C3=O)ccc2O)cc1OC [compound 371, 5-[4-Hydroxy-3-(3,4-dimethoxyphenylcarbamoyl)benzylidene]-3-(4-phenylbenzyl)thiazolidine-2,4-dione] | >99% |
| COc1ccc(NC(=O)c2cc(C=C3SC(=O)N(Cc4cc(C(F)(F)F)ccc4C(F)(F)F)C3=O)ccc2O)cc1OC [compound 372, 5-[4-Hydroxy-3-(3,4-dimethoxyphenylcarbamoyl)benzylidene]-3-[2,5-bis(trifluoromethyl)benzyl]thiazolidine-2,4-dione] | >99% |
| O=C(Nc1ccc(O)c(O)c1)c1cc(C=C2SC(=O)N(Cc3ccc(-c4ccccc4)cc3)C2=O)ccc1O [compound 373] | 93% |
| O=C(Nc1ccc(O)c(O)c1)c1cc(C=C2SC(=O)N(Cc3cc(C(F)(F)F)ccc3C(F)(F)F)C2=O)ccc1O [compound 374] | >99% |
| COc1ccc(NC(=O)c2cc(C=C3SC(=O)N(CCc4ccc(Cl)cc4)C3=O)ccc2O)cc1OC [compound 375, 5-[4-Hydroxy-3-(3,4-dimethoxyphenylcarbamoyl)benzylidene]-3-[2-(4-chlorophenyl)ethyl]thiazolidine-2,4-dione] | 63% |
| COc1ccc(NC(=O)c2cc(C=C3SC(=O)N(Cc4ccc([N+](=O)[O-])cc4)C3=O)ccc2O)cc1OC [compound 376, 5-[4-Hydroxy-3-(3,4-dimethoxyphenylcarbamoyl)benzylidene]-3-(4-nitrobenzyl)thiazolidine-2,4-dione] | 84% |
| O=C(Nc1ccc(O)c(O)c1)c1cc(C=C2SC(=O)N(CCc3ccc(Cl)cc3)C2=O)ccc1O [compound 377] | 81% |
| O=C(Nc1ccc(O)c(O)c1)c1cc(C=C2SC(=O)N(Cc3ccc([N+](=O)[O-])cc3)C2=O)ccc1O [compound 378] | 86% |
| O=C(Nc1cc(C=C2SC(=O)N(Cc3ccc(Cl)c(Cl)c3)C2=O)ccc1O)c1ccc(O)c(O)c1 [compound 380] | >99% |
